# According to PubChem BioAssay AID1159562 (GlaxoSmithKline (GSK), 2015):
# Active and inactive are the calls of the source. How the calls were made is not given here.
# Test system: Trypanosoma brucei growth inhibition, luminescence
# Test: Trypanosoma brucei growth inhibition, luminescence (AID 1159562);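 further: parasites grew with compound for 24 h before the luminescence read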
row,Structure (SMILES),IC50
1,CCC(=O)Nc1ccc(-c2nc3ccc(Cl)cc3[nH]2)cc1,> 40000 nM (inactive)
2,CCC(CC)C(=O)Nc1cccc(C(=O)Nc2nnc(C3CCCCC3)s2)c1,630 nM
3,O=c1cc(NCCCNC2CCOc3c(I)cc(Cl)cc32)[nH]c2ccccc12 (stereo not drawn),20 nM
4,Cc1nc(-c2nc(NCc3ccc(Cl)cc3)c3cccnc3c2O)n[nH]1,790 nM
5,Clc1ccc(C(CC2CCCCO2)Cn2cncn2)c(Cl)c1 (stereo not drawn),> 40000 nM (inactive)
6,O=C1CN(C2CCCc3c(OCc4ccncc4)cccc32)C(=O)N1C1CCCCC1 (stereo not drawn),> 40000 nM (inactive)
7,CC(=O)Nc1nc(-c2cc(C)ccc2C)c(C)s1,> 40000 nM (inactive)
8,COc1cc(C2SCC(=O)Nc3c2c(C)nn3-c2nc3ccccc3s2)cc(OC)c1O (stereo not drawn),> 40000 nM (inactive)
9,COc1cnc2ccc(=O)n(CCN3CCC(NC(=O)c4ccc(Cl)cc4)CC3)c2c1,100 nM
10,Cc1cc2nc(N3CC[C@H]3C(N)=O)nc(Nc3cc(C4CC4)[nH]n3)c2s1,130 nM
11,Cc1sc(C)c(C(F)(F)F)c1CNCCCNc1cc(=O)c2ccccc2[nH]1,13 nM
12,O=C(Nc1nc(-c2ccccn2)cs1)c1ccccc1-n1cnnn1,630 nM
13,CCN(C)Cc1ccc(N2CCC(NS(=O)(=O)c3ccc4c(c3)CCO4)CC2)nc1,40000 nM
14,Cc1ccccc1NS(=O)(=O)c1ccc2[nH]cc(C(=O)NC3CCCC3)c(=O)c2c1,630 nM
15,CC(=O)Nc1ccc(CN2CCC(N3CC(c4ccccc4)(c4ccccc4)OCC3=O)CC2)cc1,400 nM
16,CN(C)CCOc1ccc(N2CCN(S(=O)(=O)c3ccc(Cl)cc3)CC2)cc1,25000 nM
17,COc1ccc2ncc(F)c(CCN3CC[C@@H](NC(=O)c4cc5c(s4)CCC5)[C@@H](O)C3)c2n1,320 nM
18,Cc1ccc(S(=O)(=O)Nc2ccc(CN3CCN(C(=O)c4cccc(C#N)c4)CC3)cc2)cc1,320 nM
19,CC(C)c1cc(Nc2cc(Cc3ccccc3)nc(NC3CCC(O)CC3)n2)n[nH]1 (stereo not drawn),100 nM
20,Cc1[nH]nc(Nc2ccnc3[nH]ccc23)c1C,250 nM
21,O=C(CN(Cc1ccccn1)Cc1ccccn1)NCc1ccc2c(c1)OCO2,20000 nM
22,COc1ccc(S(=O)(=O)Nc2ccccc2OC)cc1NC(=O)CCCc1c[nH]c2ccccc12,32000 nM
23,CCc1ccccc1[C@@H](C)NC(=O)c1cnc2c(cnn2CC)c1NC1CCN(C(N)=O)CC1,500 nM
24,c1ccc2sc(Nc3nc4ncccc4[nH]3)nc2c1,1600 nM
25,O=C(NCC(c1cccs1)N1CCOCC1)c1ccc([N+](=O)[O-])o1 (stereo not drawn),320 nM
26,COc1ccc(-c2cc(C)no2)cc1S(=O)(=O)Nc1ccc(F)c(Cl)c1,25000 nM
27,O=C(Nc1ccc(Br)c(Cl)c1)Nc1ccc2c(c1)OCO2,13000 nM

row,Structure (SMILES),IC50
1,O=C(C1CCCCC1)N1CCN(c2nnc(-c3ccccc3)c3ccccc23)CC1,> 40000 nM (inactive)
2,O=[N+]([O-])c1cccc(Nc2cncc(-c3ccccc3CO)c2)c1,> 40000 nM (inactive)
3,NS(=O)(=O)c1ccc(CNC(=O)c2ccc([N+](=O)[O-])s2)cc1,250 nM
4,Cc1cc2cc(CNc3ccc4c(c3)OCO4)c(=O)n(CCO)c2cc1C,> 40000 nM (inactive)
5,O=C(NC(c1ccc(Cl)cc1)c1cnccn1)C1CCN(C(=O)Nc2cccc(C(F)(F)F)c2)CC1 (stereo not drawn),6300 nM
6,COc1ccnc2[nH]cc(-c3cc(C(=O)N[C@H](CO)c4ccccc4)co3)c12,13 nM
7,CNS(=O)(=O)c1ccccc1Nc1nc(Nc2cc(C)nn2C)ncc1Cl,100 nM
8,Cc1nc(-c2ccc3c(c2)OCO3)sc1C(=O)NCc1ccc2c(c1)OCO2,> 40000 nM (inactive)
9,COc1ccc([N+](=O)[O-])cc1NC(=O)c1cc(Cl)ccc1O,25000 nM
10,CCOC(=O)c1cn[nH]c1S(=O)(=O)N1CCC1c1ccccc1 (stereo not drawn),790 nM
11,NC(=O)c1ncc(N[C@@H]2CCCNC2)nc1Nc1cccc(Cl)c1,200 nM
12,O=C(CN1CCC2(O)CCCCC2C1c1ccc2c(c1)OCO2)Nc1ccc(Cl)cc1Cl (stereo not drawn),7900 nM
13,Nc1ncnc2c1ncn2[C@@H]1O[C@H](CO)C[C@H]1O,10 nM
14,NC(=O)c1ccsc1NC(=O)c1ccc([N+](=O)[O-])s1,1600 nM
15,Cc1[nH]n2c(=O)c3c(nc2c1-c1ccc(Br)cc1)CCCC3,790 nM
16,Cc1nc(N2CC(C)OC(C)C2)sc1C(=O)Nc1ccc2c(c1)OCO2 (stereo not drawn),> 40000 nM (inactive)
17,CCC(c1ccc(F)cc1)n1cncc1-c1cnn(C)c1 (stereo not drawn),> 40000 nM (inactive)
18,Nc1nc(-c2ccccn2)nc(N)c1Cc1c(F)cccc1Cl,2000 nM
19,Cc1nccn1C1CCCN(C(=O)c2cc3c(F)cccc3s2)C1 (stereo not drawn),> 40000 nM (inactive)
20,Cn1cc(CN2CCN(c3ccc4c(c3)CCN(C(=O)[C@H]3C[C@@H]3c3ccccc3)CC4)CC2)cn1,40000 nM
21,Cc1cc(N(C)C)nc2ccc(Cc3cnc(N)nc3N)cc12,5000 nM
22,Cc1ccccc1NS(=O)(=O)c1ccc2[nH]cc(C(=O)NC3CCCCC3)c(=O)c2c1,320 nM
23,CN(CCOc1ccc(Cl)cc1)Cc1nc(N)nc(N(C)C)n1,16000 nM
24,CCOc1ccc(CC(=O)N2c3ccccc3CC2C(=O)NC)cc1 (stereo not drawn),500 nM
25,O=C(NCc1nnc2n1CCCCC2)c1ccc(-c2ccc(F)cc2)o1,250 nM
26,O=C(c1cc2cc(Cl)ccc2[nH]1)N1CCCCC1c1cccnc1 (stereo not drawn),16000 nM
